This experiment concerns cellules L 1210 (Leucémie murine). The experiment is described as follows: In vitro cytotoxicity, Microculture Tetrazolium Assay (cell growth inhibition). The note with it: Mus musculus, L1210, L 1210 cells in RPMI 1640 with 10 % fetal calf serum, read-out: IC₅₀, concentration inhibant à 50 % la croissance cellulaire. The class given is cell-based. The protocol: Les cellules L 1210 (Leucémie murine) sont cultivées dans du RPMI 1640 complémenté avec 10 % de sérum de veau foetal, 2 mM de L-glutamine, 100 unités/ml de pénicilline, 100 µg/ml de streptomycine et 10 mM d'Hepes (pH : 7,4). L'inhibition de la croissance cellulaire est mesurée selon le "Microculture Tetrazolium Assay" décrit par M. ALLEY et coll. (Cancer Res., 48, 589-601, 1988).
Les résultats de ce test sont exprimés en IC₅₀, concentration inhibant à 50 % la croissance cellulaire. Le produit de référence utilisé est le BCNU, agent alkylant très actif utilisé en clinique.
For `O=C1C#Cc2ccccc2C#CCCC1` [exemple 7, 7-Oxo-benzo[c]cyclodéca-1,5-diyne], the IC50 amounted to 0.5 µM.

With `CC(=O)OC1C#C/C=C\C#CCCC1` (stereo not drawn) [exemple 2, 7-Acétoxy-1,5-diyne-3-cyclodécène], the IC50 was 5.6 µM.

Turning to `O=NN(CCCl)C(=O)NCCCl` [BCNU, reference compound], the IC50 was determined as 6.4 µM.
